Assay results as given in patent publication US20050187608A1, “Radioprotective compound coating for medical devices” (priority 2004, published 2005).
Marks after values point to notes of the source that are not given here.

Experiments:
[1] = test system: neointimal hyperplasia and inflammation; assay: Rapamycin compared with dexamethasone delivered from a stent; type: in vivo; settings: for Inflammation Score: uncoated 0.97 ± 1.00; for Neointimal Area: uncoated 5.24 ± 1.65; for % Area Stenosis: uncoated 54 ± 19
Source text: Dexamethasone, a potent steroidal anti-inflammatory agent, was used as a reference standard.

[2] = In vivo release kinetics from rapamycin/mycophenolic acid coatings, porcine pharmacokinetics studies
Source text: The topcoat is two hundred micro grams.

[3] = test system: human coronary artery smooth muscle cells; assay: Anti-proliferative activity of rapamycin with varying concentrations of mycophenolic acid; type: cell-based; settings: non-synchronized cultured human coronary artery smooth muscle cells, two percent fetal bovine serum, mycophenolic acid zero to one thousand nano molar, FIG. 52
Source text: The multiple curves represent various concentrations of mycophenolic acid ranging from zero to one thousand nano molar concentrations. […] This potentiation observed in cultured coronary artery smooth muscle cells preferably translates to an enhancement in anti-restenotic efficacy following vascular injury and a reduction in the required amount of either agent to achieve the desired anti-restenotic effect.

[4] = test system: human coronary artery smooth muscle cell proliferation; assay: In vitro cell culture study of coronary artery smooth muscle cell proliferation; type: cell-based
Source text: FIG. 51 is a graph of the inhibition of coronary artery smooth muscle cells by trichostatin A in a cell culture study.

SMILES: C[C@@H]1C[C@H]2[C@@H]3CCC4=CC(=O)C=C[C@]4(C)[C@@]3(F)[C@@H](O)C[C@]2(C)[C@@]1(O)C(=O)CO [Dexamethasone, dexamethasone]
- Inflammation Score [1]: 0.39 ± 0.24
- Neointimal Area [1]: 4.31 ± 3.02 mm^2
- % Area Stenosis [1]: 45 ± 31%

SMILES: CO[C@H]1C[C@@H]2CC[C@@H](C)[C@@](O)(O2)C(=O)C(=O)N2CCCC[C@H]2C(=O)O[C@H]([C@H](C)C[C@@H]2CC[C@@H](O)[C@H](OC)C2)CC(=O)[C@H](C)/C=C(\C)[C@@H](O)[C@@H](OC)C(=O)[C@H](C)C[C@H](C)/C=C/C=C/C=C/1C [Rapamycin, rapamycin]
- Inflammation Score [1]: 0.13 ± 0.19
- Neointimal Area [1]: 2.47 ± 0.94* mm^2
- % Area Stenosis [1]: 26 ± 10 %
- in vivo release rate ([2]; PVDF basecoat 600 μg, rapamycin and mycophenolic acid equally two thirds by weight, 200 μg PVDF topcoat, FIG. 56): slower release rate than that of mycophenolic acid

SMILES: COc1c(C)c2c(c(O)c1C/C=C(\C)CCC(=O)O)C(=O)OC2 [mycophenolic acid]
- effect on the anti-proliferative rapamycin dose response curve [3]: potentiates the anti-proliferative activity of rapamycin
- in vivo release of mycophenolic acid from the basecoat ([2]; EVA/BMA basecoat 600 μg with 30% rapamycin and 30% mycophenolic acid, BMA topcoat 0/100/200 μg, FIG. 54): elutes more completely over a shorter duration than the rapamycin

SMILES: CC(/C=C/C(=O)NO)=C\[C@@H](C)C(=O)c1ccc(N(C)C)cc1 [trichostatin A]
- inhibition of human coronary artery smooth muscle cell proliferation ([4]; FIG. 51): completely inhibit
- IC50 ([4]; human coronary artery smooth muscle cells, read-out: anti-proliferative IC50): ~6 nM
